This passage reports pest or weed control results from patent US8754242B2, “Herbicides” (Syngenta Crop Protection LLC, priority 2007, dated 2014).

Assay type in all cases: in vivo
Experiment [1] concerns Setaria faberi (SETFA). The experiment is described as follows: Test Example 1 post-emergence herbicidal activity. The settings on record: 360 h, rate 125 g/ha, evaluated 15 days later, read-out: Post-emergence activity SETFA (100=total damage to plant; 0=no damage to plant). The method in brief: (§1)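 Pots sown in standard soil were sprayed 1 day (pre-emergence) or 10 days (post-emergence) after sowing with an aqueous spray from an acetone/Emulsogen EL/N-methylpyrrolidone-based formulation. Visual damage was scored 20 days (pre) or 15 days (post) later in the greenhouse, 0 = none to 100 = total.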

The subject of experiment [2] is Avena fatua (AVEFA). The experiment is described as follows: Test Example 1 post-emergence herbicidal activity. The conditions noted are these: 360 h, rate 125 g/ha, evaluated 15 days later, read-out: Post-emergence activity AVEFA (100=total damage to plant; 0=no damage to plant). The gist of the method:
as §1

The test system of experiment [3] is Lolium perenne (LOLPE). The experiment is described as follows: Test Example 1 post-emergence herbicidal activity. The conditions noted are these: 360 h, rate 125 g/ha, evaluated 15 days later, read-out: Post-emergence activity LOLPE (100=total damage to plant; 0=no damage to plant). The gist of the method: as §1
In experiment [4] the test system is Echinochloa crus-galli (ECHCG). The experiment in a line: Test Example 1 post-emergence herbicidal activity. The conditions noted are these: 360 h, rate 125 g/ha, evaluated 15 days later, read-out: Post-emergence activity ECHCG (100=total damage to plant; 0=no damage to plant). The gist of the method: as §1
The test system of experiment [5] is Digitaria sanguinalis (DIGSA). The experiment is described as follows: Test Example 1 post-emergence herbicidal activity. The conditions noted are these: 360 h, rate 125 g/ha, evaluated 15 days later, read-out: Post-emergence activity DIGSA (100=total damage to plant; 0=no damage to plant). The method in brief: as §1
Experiment [6] concerns Alopecurus myosuroides (ALOMY). The experiment is described as follows: Test Example 1 post-emergence herbicidal activity. The conditions noted are these: 360 h, rate 125 g/ha, evaluated 15 days later, read-out: Post-emergence activity ALOMY (100=total damage to plant; 0=no damage to plant). The gist of the method:
as §1

Experiment [7] relates to Setaria faberi (SETFA). The experiment is described as follows: Test Example 1 pre-emergence herbicidal activity. The settings on record: Setaria faberi, 480 h, rate 250 g/ha, evaluated 20 days later, read-out: Pre-emergence activity SETFA (100=total damage to plant; 0=no damage to plant). The method in brief: as §1
Experiment [8] deals with Avena fatua (AVEFA). The experiment in a line: Test Example 1 pre-emergence herbicidal activity. The settings on record: Avena fatua, 480 h, rate 250 g/ha, evaluated 20 days later, read-out: Pre-emergence activity AVEFA (100=total damage to plant; 0=no damage to plant). The method in brief:
as §1

Experiment [9] relates to Lolium perenne (LOLPE). The experiment in a line: Test Example 1 pre-emergence herbicidal activity. The conditions noted are these: Lolium perenne, 480 h, rate 250 g/ha, evaluated 20 days later, read-out: Pre-emergence activity LOLPE (100=total damage to plant; 0=no damage to plant). The method in brief:
as §1

Experiment [10] deals with Echinochloa crus-galli (ECHCG). The experiment is described as follows: Test Example 1 pre-emergence herbicidal activity. The settings on record: Echinochloa crus-galli, 480 h, rate 250 g/ha, evaluated 20 days later, read-out: Pre-emergence activity ECHCG (100=total damage to plant; 0=no damage to plant). The gist of the method:
as §1

Experiment [11] relates to Digitaria sanguinalis (DIGSA). The experiment in a line: Test Example 1 pre-emergence herbicidal activity. The settings on record: Digitaria sanguinalis, 480 h, rate 250 g/ha, evaluated 20 days later, read-out: Pre-emergence activity DIGSA (100=total damage to plant; 0=no damage to plant). The method in brief:
as §1

Experiment [12] concerns Alopecurus myosuroides (ALOMY). The experiment in a line: Test Example 1 pre-emergence herbicidal activity. The settings on record: Alopecurus myosuroides, 480 h, rate 250 g/ha, evaluated 20 days later, read-out: Pre-emergence activity ALOMY (100=total damage to plant; 0=no damage to plant). The method in brief:
as §1

For `CCc1cc(C)cc(CC)c1C1=C(O)[C@H]2[C@@H](C1=O)[C@@H]1C=C[C@@]2(CO)O1` (racemic) [Example T13], the pest or weed control at 125 g/ha in the experiment on Setaria faberi (SETFA) [1] stood at 100%; in the experiment with Avena fatua (AVEFA) [2], 90%; in the experiment on Lolium perenne (LOLPE) [3], 90%; in experiment [4], 100%; in experiment [5] it was 50%; in experiment [6], 80%. The pest or weed control at 250 g/ha in the experiment with Setaria faberi (SETFA) [7] turned out to be 100%; in the experiment on Avena fatua (AVEFA) [8], 80%; in the experiment with Lolium perenne (LOLPE) [9] it was 90%; in [10] it was 100%; in experiment [11] it was 100%; in [12], 80%.

For the compound `CCOCOC[C@]12CC[C@H](O1)[C@@H]1C(=O)C(c3c(CC)cc(C)cc3CC)=C(O)[C@@H]12` [Example T19], the pest or weed control at 125 g/ha in the experiment with Setaria faberi (SETFA) [1] was 100%; in the experiment with Avena fatua (AVEFA) [2] it was 100%; in the experiment with Lolium perenne (LOLPE) [3], 90%; in experiment [4], 100%; in experiment [5] it was 90%; in experiment [6], 100%. In addition, the pest or weed control at 250 g/ha came out at 100% in the experiment with Setaria faberi (SETFA) [7]; 90% in the experiment with Avena fatua (AVEFA) [8]; 100% in the experiment with Lolium perenne (LOLPE) [9]; 100% in [10]; 90% in [11]; 100% in experiment [12].

In the case of `CCc1cc(C)cc(CC)c1C1=C(O)[C@@H]2[C@@H]3O[C@@H](C[C@H]3c3cc(C(F)(F)F)ccc3Cl)[C@@H]2C1=O` [Example T169], the pest or weed control at 125 g/ha came to 60% with Setaria faberi (SETFA) [1]; 10% in the experiment on Avena fatua (AVEFA) [2]; 30% with Lolium perenne (LOLPE) [3]; 80% in experiment [4]; 40% in [5]; 90% in experiment [6]. The pest or weed control at 250 g/ha in the experiment with Setaria faberi (SETFA) [7] was found to be 0%; with Avena fatua (AVEFA) [8], 30%; in the experiment on Lolium perenne (LOLPE) [9], 40%; in experiment [10], 0%; in experiment [11] it was 0%; in [12], 20%.

As for `CCc1cc(C)cc(CC)c1C1=C(O)[C@H]2[C@@H](C1=O)[C@@H]1C=C[C@H]2O1` [Example T4], the pest or weed control at 125 g/ha in the experiment with Setaria faberi (SETFA) [1] amounted to 80%; in the experiment with Avena fatua (AVEFA) [2], 90%; in the experiment on Lolium perenne (LOLPE) [3], 90%; in experiment [4], 100%; in experiment [5], 80%; in [6] it was 80%. Besides, the pest or weed control at 250 g/ha amounted to 90% with Setaria faberi (SETFA) [7]; 90% in the experiment on Avena fatua (AVEFA) [8]; 100% in the experiment on Lolium perenne (LOLPE) [9]; 100% in [10]; 100% in experiment [11]; 90% in [12].

On to `CC1=C[C@@H]2O[C@H]1[C@H]1C(O)=C(c3c(C)cc(C)cc3C)C(=O)[C@H]12` (racemic) [Example T44], for which the pest or weed control at 125 g/ha was 80% with Setaria faberi (SETFA) [1]; 50% in the experiment on Avena fatua (AVEFA) [2]; 20% in the experiment with Lolium perenne (LOLPE) [3]; 90% in [4]; 80% in experiment [5]; 80% in experiment [6]. For the same compound, the pest or weed control at 250 g/ha in the experiment with Setaria faberi (SETFA) [7] came to 80%; in the experiment with Avena fatua (AVEFA) [8], 40%; in the experiment on Lolium perenne (LOLPE) [9], 70%; in experiment [10] it was 70%; in experiment [11], 80%; in experiment [12], 80%.

`CCc1cc(C)cc(CC)c1C1=C(O)[C@H]2[C@@H](C1=O)[C@@H]1CC[C@@]2(COC)O1` [Example T17]: the pest or weed control at 125 g/ha in the experiment with Setaria faberi (SETFA) [1] was found to be 100%; in the experiment with Avena fatua (AVEFA) [2] it was 100%; with Lolium perenne (LOLPE) [3], 90%; in [4] it was 100%; in [5] it was 100%; in [6], 100%. Also, the pest or weed control at 250 g/ha was 100% in the experiment with Setaria faberi (SETFA) [7]; 90% in the experiment with Avena fatua (AVEFA) [8]; 100% in the experiment with Lolium perenne (LOLPE) [9]; 100% in [10]; 100% in experiment [11]; 100% in [12].

For the compound `CCc1cc(C)cc(CC)c1C1=C(O)[C@@H]2[C@@H]3O[C@@H](C[C@H]3c3ccc(C(C)=O)cc3)[C@@H]2C1=O` [Example T171], the pest or weed control at 125 g/ha with Setaria faberi (SETFA) [1] amounted to 90%; in the experiment on Avena fatua (AVEFA) [2] it was 60%; with Lolium perenne (LOLPE) [3], 20%; in experiment [4] it was 100%; in experiment [5], 80%; in experiment [6], 70%. Moreover, the pest or weed control at 250 g/ha in the experiment on Setaria faberi (SETFA) [7] stood at 70%; with Avena fatua (AVEFA) [8], 0%; in the experiment on Lolium perenne (LOLPE) [9], 10%; in experiment [10], 70%; in [11] it was 40%; in [12], 30%.

With `Cc1cc(C)c(C2=C(O)[C@@H]3[C@@H]4O[C@@H](C[C@H]4c4ccc(C(F)(F)F)nc4)[C@@H]3C2=O)c(C)c1` (racemic) [Example T128], the pest or weed control at 125 g/ha in the experiment on Setaria faberi (SETFA) [1] was 100%; with Avena fatua (AVEFA) [2], 90%; with Lolium perenne (LOLPE) [3], 80%; in experiment [4], 100%; in [5], 100%; in [6], 80%. The pest or weed control at 250 g/ha in the experiment with Setaria faberi (SETFA) [7] worked out at 100%; with Avena fatua (AVEFA) [8], 70%; in the experiment with Lolium perenne (LOLPE) [9], 90%; in experiment [10], 100%; in experiment [11] it was 100%; in experiment [12], 70%.

As for `CCc1cc(C)cc(CC)c1C1=C(O)[C@@H]2[C@@H]3O[C@@H](C[C@H]3c3ccc(F)cc3)[C@@H]2C1=O` [Example T185], the pest or weed control at 125 g/ha with Setaria faberi (SETFA) [1] was 100%; in the experiment on Avena fatua (AVEFA) [2], 80%; in the experiment with Lolium perenne (LOLPE) [3], 80%; in experiment [4], 100%; in experiment [5], 100%; in experiment [6], 90%. Further, the pest or weed control at 250 g/ha in the experiment with Setaria faberi (SETFA) [7] was found to be 80%; in the experiment with Avena fatua (AVEFA) [8] it was 80%; with Lolium perenne (LOLPE) [9], 100%; in experiment [10], 80%; in [11] it was 80%; in experiment [12], 80%.

As to `Cc1cc(C)c(C2=C(O)[C@@H]3[C@@H]4O[C@@H](C[C@H]4c4ccc(C(F)(F)F)cc4)[C@@H]3C2=O)c(C)c1` [Example T92], the pest or weed control at 125 g/ha came to 100% in the experiment with Setaria faberi (SETFA) [1]; 100% in the experiment with Avena fatua (AVEFA) [2]; 50% in the experiment with Lolium perenne (LOLPE) [3]; 100% in experiment [4]; 100% in experiment [5]; 100% in experiment [6]. In addition, the pest or weed control at 250 g/ha turned out to be 70% in the experiment on Setaria faberi (SETFA) [7]; 60% in the experiment on Avena fatua (AVEFA) [8]; 30% in the experiment on Lolium perenne (LOLPE) [9]; 90% in experiment [10]; 70% in [11]; 20% in [12].
